These results are taken from US11459339B2, “Biaryl derivative, preparation method thereof and pharmaceutical application thereof” (Abbisko Therapeutics Co., Ltd., priority 2018, dated 2022).

The target of assay [1] is interaction between PD-1 and PD-L1 (Homo sapiens (Human), UniProt Q9NZQ7). Briefly: PD1-PDL1 HTRF binding activity test (Cisbio PD-1/PD-L1 binding assay kit). The note with it: read-out: PD1-PDL1 HTRF Binding Activity IC50. A general note: In TR-FRET formats the signal depends on donor and acceptor labels being close together.
The target in assay [2] is interaction between PD-1 and PD-L1 expressed on cell surfaces (Homo sapiens (Human), UniProt Q9NZQ7). Briefly: Jurkat reporter gene cellular assay (Jurkat/NF-κB-luc/PD1 cells cocultured with Raji-PD-L1 cells, OKT-3 stimulation). The format is cell-based. The note with it: NF-κB-luc reporter activation fold, 6 hrs; read-out: Cell Activity EC50. The gist of the method:
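Jurkat cells stably expressing human PD-1 and NF-κB-luciferase were cocultured with Raji cells stably expressing human PD-L1 under OKT-3 stimulation, with compound present. Luminescence was read after 6 h.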
In general terms: Reporter assays use an easily measured gene product as a stand-in for the process of interest.

Sequence of interaction between PD-1 and PD-L1 expressed on cell surfaces (Q9NZQ7 19-290): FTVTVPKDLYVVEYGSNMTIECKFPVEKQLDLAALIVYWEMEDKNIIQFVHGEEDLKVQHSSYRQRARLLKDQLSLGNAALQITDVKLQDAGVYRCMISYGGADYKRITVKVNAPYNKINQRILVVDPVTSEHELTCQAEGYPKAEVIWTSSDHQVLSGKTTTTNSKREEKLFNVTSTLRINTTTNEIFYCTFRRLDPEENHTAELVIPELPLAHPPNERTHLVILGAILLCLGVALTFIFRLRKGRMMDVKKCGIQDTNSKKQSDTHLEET
Sequence of interaction between PD-1 and PD-L1 (Q9NZQ7 19-238): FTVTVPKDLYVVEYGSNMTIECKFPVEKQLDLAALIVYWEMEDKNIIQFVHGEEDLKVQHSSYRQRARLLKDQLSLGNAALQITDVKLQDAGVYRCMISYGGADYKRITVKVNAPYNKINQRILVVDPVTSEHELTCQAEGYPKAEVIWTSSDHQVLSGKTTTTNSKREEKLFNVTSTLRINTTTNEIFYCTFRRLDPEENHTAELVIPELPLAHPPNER

A word on the IC50: it is the midpoint of a concentration-inhibition curve. A word on the EC50: it is the concentration at which the effect is half-maximal. With `CCOC(=O)CNCc1cnc(C(=O)Nc2cccc(-c3cccc(NC(=O)c4cc(C5CC5)c(CNCC(=O)OCC)cn4)c3C)c2C)cc1C1CC1` [Example 121, diethyl 2,2′-((((((2,2′-dimethyl-[1,1′-biphenyl]-3,3′-diyl)bis(azanediyl))bis(carbonyl))bis(4-cyclopropylpyridine-6,3-diyl))bis(methylene))bis(azanediyl)) diacetate], the half-maximal inhibitory concentration (IC50) in assay [1] turned out to be 16.6 nM. Further, in assay [2], the EC50 came to 1340 nM.
`Cc1c(NC(=O)c2cc(C3CC3)c(CNCC(=O)O)cn2)cccc1-c1cccc(NC(=O)c2cc(C3CC3)c(CNCC(=O)O)cn2)c1C` [Example 122, 2,2′-((((((2,2′-dimethyl-[1,1′-biphenyl]-3,3′-diyl)bis(azanediyl))bis(carbonyl))bis(4-cyclopropylpyridine-6,3-diyl))bis(methylene))bis(azanediyl)) diacetic acid]: in assay [1], the IC50 worked out at 1.14 nM. Besides, in assay [2], the EC50 is 19 nM.
With `CCOC(=O)[C@H](C)NCc1cnc(C(=O)Nc2cccc(-c3cccc(NC(=O)c4cc(C5CC5)c(CN[C@@H](C)C(=O)OCC)cn4)c3C)c2C)cc1C1CC1` [Example 123], the IC50 in assay [1] was 22 nM. In addition, the EC50 in assay [2] was 2410 nM.
Consider `Cc1c(NC(=O)c2cc(C3CC3)c(CN[C@@H](C)C(=O)O)cn2)cccc1-c1cccc(NC(=O)c2cc(C3CC3)c(CN[C@@H](C)C(=O)O)cn2)c1C` [Example 124, (2S,2S)-2,2′-((((((2,2′-dimethyl-[1,-1′-biphenyl]-3,3′-diyl)bis(azanediyl))bis (carbonyl))bis(4-cyclopropylpyridine-6,3-diyl))bis(methylene))bis(azanediyl)) dipropionic acid], for which, in assay [1], the IC50 was determined as 1.09 nM. Also, in assay [2], the concentration giving a half-maximal response (EC50) came out at 14.7 nM.
Turning to `CCOC(=O)[C@@H](NCc1cnc(C(=O)Nc2cccc(-c3cccc(NC(=O)c4cc(C5CC5)c(CN[C@H](C(=O)OCC)C(C)C)cn4)c3C)c2C)cc1C1CC1)C(C)C` [Example 125, diethyl 2,2′-((((((2,2′-dimethyl-[1,1′-biphenyl]-3,3′-diyl)bis(azanediyl))bis(carbonyl))bis(4-cyclopropylpyridine-6,3-diyl))bis(methylene))bis(azanediyl)) (2S,2′S)-bis(3-methylbutanoate)], the IC50 in assay [1] is > 2000 nM. Moreover, in assay [2], the concentration giving a half-maximal response (EC50) was > 10000 nM.
Taken in the same sequence, the figures for `Cc1c(NC(=O)c2cc(C3CC3)c(CN[C@H](C(=O)O)C(C)C)cn2)cccc1-c1cccc(NC(=O)c2cc(C3CC3)c(CN[C@H](C(=O)O)C(C)C)cn2)c1C` [Example 126, (2S,2S)-2,2-((((((2,2′-dimethyl-[1,1′-biphenyl]-3,3′-diyl)bis(azanediyl))bis (carbonyl))bis(4-cyclopropylpyridine-6,3-diyl))bis(methylene))bis(azanediyl)) bis(3-methylbutanoic acid)] were 1.11 nM and 64 nM.
For the molecule `CCOC(=O)C1(NCc2cnc(C(=O)Nc3cccc(-c4cccc(NC(=O)c5cc(C6CC6)c(CNC6(C(=O)OCC)CC6)cn5)c4C)c3C)cc2C2CC2)CC1` [Example 127, diethyl 1,1′-((((((2,2′-dimethyl-[1,1′-biphenyl]-3,3′-diyl)bis(azanediyl))bis(carbonyl))bis(4-cyclopropylpyridine-6,3-diyl))bis(methylene))bis(azanediyl)) bis(cyclopropane-l-carboxylate)], the IC50 in assay [1] was determined as 113 nM. In assay [2], the EC50 is > 10000 nM.
With `Cc1c(NC(=O)c2cc(C3CC3)c(CNC3(C(=O)O)CC3)cn2)cccc1-c1cccc(NC(=O)c2cc(C3CC3)c(CNC3(C(=O)O)CC3)cn2)c1C` [Example 128, 1,1′-((((((2,2′-dimethyl-[1,1′-biphenyl]-3,3-diyl)bis(azanediyl))bis(carbonyl))bis (4-cyclopropylpyridine-6,3-diyl))bis (methylene))bis(azanediyl))bis (cyclopropane-1-carboxylic acid)], the IC50 in assay [1] came to 1.32 nM. Besides, the EC50 in assay [2] was determined as 77.8 nM.
As for `CCOC(=O)CN(C)Cc1cnc(C(=O)Nc2cccc(-c3cccc(NC(=O)c4cc(C5CC5)c(CN(C)CC(=O)OCC)cn4)c3C)c2C)cc1C1CC1` [Example 129], the IC50 in assay [1] came out at 102 nM. Also, the EC50 in assay [2] was > 10000 nM.
Taken in the same sequence, the figures for `Cc1c(NC(=O)c2cc(C3CC3)c(CN(C)CC(=O)O)cn2)cccc1-c1cccc(NC(=O)c2cc(C3CC3)c(CN(C)CC(=O)O)cn2)c1C` [Example 130, 2,2′-((((((2,2′-dimethyl-[1,1′-biphenyl]-3,3′-diyl)bis(azanediyl))bis (carbonyl))bis(4-cyclopropylpyridine-6,3-diyl))bis(methylene))bis (methylazanediyl))diacetic acid] were 0.99 nM and 600 nM.
Taken in the same sequence, the figures for `COC(=O)[C@@H]1CCN(Cc2cnc(C(=O)Nc3cccc(-c4cccc(NC(=O)c5cc(C6CC6)c(CN6CC[C@@H](C(=O)OC)C6)cn5)c4C)c3C)cc2C2CC2)C1` [Example 131, dimethyl 1,1′-(((((2,2′-dimethyl-[1,1′-biphenyl]-3,3′-diyl)bis(azanediyl))bis (carbonyl))bis(4-cyclopropylpyridine-6,3-diyl))bis(methylene))(3R,3′R)-bis (pyrrolidine-3-carboxylate)] were 21.8 nM and 2580 nM.
With `Cc1c(NC(=O)c2cc(C3CC3)c(CN3CC[C@@H](C(=O)O)C3)cn2)cccc1-c1cccc(NC(=O)c2cc(C3CC3)c(CN3CC[C@@H](C(=O)O)C3)cn2)c1C` [Example 132, (3R,3′R)-1,1′-(((((2,2′-dimethyl-[1,1′-biphenyl]-3,3′-diyl)bis(azanediyl))bis (carbonyl))bis(4-cyclopropylpyridine-6,3-diyl))bis(methylene))bis(pyrrolidine-3-carboxylic acid)], the IC50 in assay [1] was found to be 0.2 nM. In addition, in assay [2], the EC50 amounted to 23.1 nM.
For the molecule `COC(=O)[C@H]1CCN(Cc2cnc(C(=O)Nc3cccc(-c4cccc(NC(=O)c5cc(C6CC6)c(CN6CC[C@H](C(=O)OC)C6)cn5)c4C)c3C)cc2C2CC2)C1` [Example 133, dimethyl 1,1′-(((((2,2′-dimethyl-[1,1′-biphenyl]-3,3′-diyl)bis(azanediyl))bis (carbonyl))bis(4-cyclopropylpyridine-6,3-diyl))bis(methylene))(3S,3′S)-bis (pyrrolidine-3-carboxylate)], in assay [1], the IC50 was 11.8 nM. The concentration giving a half-maximal response (EC50) in assay [2] was 1900 nM.
On the same counts, the results for `Cc1c(NC(=O)c2cc(C3CC3)c(CN3CC[C@H](C(=O)O)C3)cn2)cccc1-c1cccc(NC(=O)c2cc(C3CC3)c(CN3CC[C@H](C(=O)O)C3)cn2)c1C` [Example 134, (3S,3′S)-1,1′-(((((2,2′-dimethyl-[1,1′-biphenyl]-3,3′-diyl)bis(azanediyl))bis (carbonyl))bis(4-cyclopropylpyridine-6,3-diyl))bis(methylene))bis(pyrrolidine-3-carboxylic acid)] are 0.82 nM and 21 nM.
For `Cc1c(NC(=O)c2cc(C3CC3)c(CNC[C@@H](O)CC(=O)O)cn2)cccc1-c1cccc(NC(=O)c2cc(C3CC3)c(CNC[C@@H](O)CC(=O)O)cn2)c1C` [Example 136, (3S,3′S)-4,4′-((((((2,2′-dimethyl-[1,1′-biphenyl]-3,3′-diyl)bis(azanediyl))bis (carbonyl))bis(4-cyclopropylpyridine-6,3-diyl))bis(methylene))bis(azanediyl)) bis(3-hydroxybutanoic acid)], the IC50 in assay [1] was found to be 0.32 nM. Further, in assay [2], the EC50 was 27.4 nM.
